Square brackets hold non-standard residues; d marks the D form. Ends that are not written are not given here.
How the values were obtained:
RPMI8226 cells = test: MTT assay, VEGF-induced proliferation of RPMI8226 cells; assay type: cell-based; settings: for effect on VEGF-induced proliferation of RPMI8226 cells: VEGF 50 ng/ml, 25 μM peptide, 24 hrs, MTT; for biological activity of the analogue relative to the 7-mer (summary statement of the description): summary of Example 1 findings
Procedure: The multiple myeloma line RPMI8226 was cultivated in complex medium (RPMI1640) supplemented with 10% (vol/vol) heat-inactivated fetal calf serum (Invitrogen), 50 μg/mL penicillin, 50 μg/mL streptomycin, and 2 mM L-glutamine at 37° C. in a 5% CO2 atmosphere. RPMI8226 cells were cultured in serum-free RPMI1640 medium for 24 hrs, and then cells were seeded in 48-well culture plates (3×10^5 cells/well) and continued to culture in 0.5 ml fresh serum-free RPMI1640 medium containing 25 μM peptide for another 24 hrs. The cell viability was determined by the MTT assay. Briefly, 50 μL of MTT stock solution (50 μL) (5 mg MTT dissolved in 1 ml of sterile PBS) was added to each culture well. In addition, 50 μL of the MTT stock solution was added in 500 μL of medium as the negative control. The culture plate was incubated at 37° C. for 4 hours. Aliquots (450 μl) from each sample were taken to a new well of 48-well culture plate, adding 100 μL DMSO, mixing thoroughly using the pipette and reacted at 37° C. for 20 min and read absorbance at 570 nm. These synthesized peptides were then subject to MTT assay, in which vascular endothelial growth factor (VEGF) was used as a stimulant to induce cell proliferation. Results are depicted in FIGS. 1 to 4.

HUVECs [1] = test: VEGF-induced HUVEC proliferation assay; assay type: cell-based; settings: VEGF (10 ng/mL) + 25 μM peptide; vs untreated HUVECs
Procedure: HUVECs (1×10^5 cells per well of 6-well plate) were grown in Medium 200 with Low Serum Growth Supplement (LSGS Kit, supplement contains 1.9% FBS, 3 ng/ml bFGF, 10 μg/ml heparin, 1 μg/ml hydrocortisone, and 10 ng/ml EGF). Culture plates were coated with 2% gelatin. Cells (passages 4-8) were cultured at 37° C. in a humidified atmosphere of 5% CO2. […]
HUVECs (1×10^5 cells per well of 6-well plate) in Medium 200 supplemented with LSGS Kit were allowed to grow onto 6-well plates coated with 2% gelatin for 24 hours at 37° C. in 5% CO2. The culture medium was then replaced with serum free Medium 200 overnight. […] Then, cells were harvested by trypsin-EDTA and counted using a hemocytometer.

HUVECs [2] = test: Endothelial cell capillary-like tube formation assay; assay type: cell-based; settings: VEGF (10 ng/mL) + 25 μM peptide; vs untreated HUVECs
Procedure: To examine the effect of the present synthetic peptide on in vitro angiogenesis, growth factor-reduced matrigel was pipetted into pre-chilled 24-well plates (150 μl matrigel per well) and polymerized for 45 min at 37° C. […] In this experiment, images were captured using a Cannon camera on Zeiss inverted microscope with magnification ×40 and tube length was quantified using Image analysis software (Image-Pro Plus). The control peptide as used in the present invention has the sequence of DLYRVR (SEQ ID NO: 10).

rat aortic ring = test: Rat aortic ring assay (ex vivo microvessel sprouting); set-up: species or system Sprague Dawley rats; settings: beta-FGF induced; peptide 50 μM
Procedure: Thoracic aortas were removed from euthanized 10-week-old male Sprague Dawley rats, and gently stripped off periaortic fibroadipose tissue. Aortas were sectioned to about 2-mm length rings, which were embedded in Matrigel. To induce angiogenesis, human recombinant bFGF (50 ng/ml) or bFGF plus the peptide (50 μM) was added in Matrigel. Gel (200 μl) containing an aortic ring was polymerized in 12-well plates (37° C. for 30 min) and then incubated with 1 ml of Medium 200 supplemented with 100 units/ml penicillin, and […] streptomycin and 2% FBS at 37 ° C. The cultures were propagated at 37 ° C. in a humidified incubator for up to 7 days. Sprouts were recorded using an inverted microscope platform (Leica DM16000B) with bright-field optics. Each ring was scored by three independent observers on a scale 0-4 depending on the degree of sprouting vessel being observed (0=no sprouting, 4=profuse sprouting). The experiment was repeated in triplicates.

B16-F10 melanoma cells = test: Experimental pulmonary metastasis in mice; assay type: in vivo, C57BL/6 mice; settings: for effect on number of colonies on the surface of the lung / in vivo metastasis / No. lung colonies: 10 mg/Kg intraperitoneal every 2 days; for No. lung colonies: day 8, n = 5; for Inhibition (%): lung colonies vs vehicle, 10 mg/Kg
Procedure: 2×10^5 B16-F10 cells were suspended in 100 μl PBS and checked for viability using trypan blue staining (>95%). The B16-F10 cells were then injected into the tail vein of the 6-week-old female C57BL/6 mice; while vehicle (DMSO), the present synthetic peptide or the control peptide (10 mg/kg) were administered by intraperitoneal injections every 2 days after the B16-F10 cell injection. Five mice were used for each group. On day 8 after inoculation of cells, the lungs were removed, and the number of visible colonies on the surface of the lungs were counted using a dissecting microscope.
Metastasis is the foremost cause of death from cancer. In this example, to investigate the efficacy of the present synthetic peptide on the metastasis of cancer cells, B16-F10 cells were injected into the tail vein of a mouse, the animal was then treated with the present synthetic peptide (7-mer or 7-mer DD, 10 mg/Kg) by intraperitoneal injections every 2 days. Upon completion of the experiment, the lungs were then removed and the tumor colonies visible to the eyes were then counted. Results are depicted in FIG. 10.

[3] = system: STZ-induced diabetic mice; test: Vascular abnormalities in the retina of diabetic mice; assay type: in vivo; settings: for Fluorescence Intensity (Fold): leaked FITC-BSA in entire retina, vs vehicle
Procedure: Diabetic mice were generated by a single intraperitoneal injection of streptozotocin (STZ) (150 mg/kg body weight). STZ was freshly prepared in 0.1 M citrate buffer (pH 4.5). After injection, mice were supplied with 10% sucrose overnight to prevent sudden hypoglycemic shock. After 1 week, mice with non-fasting blood glucose levels >500 mg/dl were defined as diabetic and used for the experiments. DMSO Vehicle or the present synthetic peptide (10 mg/kg; n≥3 per peptide) were administered by intraperitoneal injections twice a day. After treatment for 24 h, mice were intraperitoneal injected with 100 mg/kg of BSA-FITC for further 30 min.
To determine vascular lesions (hemorrhaging areas) in retina, the animals were euthanized by CO2 inhalation, and the eyes were enucleated and fixed by 2% paraformaldehyde for 2 hr and flat-mounted onto glass slides to obtain optical sections by an epifluorescence microscopy. Vascular lesions in the retina was scored in all four retinal quadrants of flat mounts by using a 20× objective. Six microscopic fields were sampled in each quadrant in both the central and peripheral retina, and data were presented as the average number of lesions/retina.
Vascular FITC-BSA leakage was determined by a fluorescence spectrofluorometer based on standard curves of FITC-BSA at excitation and emission wavelengths of 488 and 535 nm, respectively, and then normalized to a non-injected control retina. For this analysis, retinas were dissected from treated and untreated diabetic mice after BSA-FITC injections, and each was solubilized in 300 μL ice-cold PBS.
Diabetic retinopathy is characterized by blood-retinal barrier (BRB) breakdown and neurotoxicity. To evaluate the possible beneficial effect of the present synthetic peptides on diabetic retinopathy, STZ-induced diabetic mice were intraperitoneally injected with 7-mer peptide, DMSO vehicle or the control peptide (SEQ ID NO: 22). The retinal vascular abnormality was then monitored by detecting the extravasation of BSA-fluorescein. Results are depicted in FIG. 11.

Substance | effect on VEGF-induced proliferation of RPMI8226 cells (RPMI8226 cells) | Cell number (Fold) (HUVECs [1]) | Tube length (Fold) (HUVECs [2]) | level of sprouting microvessels around the aortic ring (rat aortic ring) | effect on number of colonies on the surface of the lung / in vivo metastasis (B16-F10 melanoma cells) | No. lung colonies (B16-F10 melanoma cells) | Inhibition (%) (B16-F10 melanoma cells) | extravasation of FITC-BSA [3] | Fluorescence Intensity (Fold) [3] [Fold] | biological activity of the analogue relative to the 7-mer (summary statement of the description) (RPMI8226 cells)
NH2-Asp-Leu-Trp-Arg-Ile-Arg-Ser-COOH (DLWRIRS; not fully specified (N-terminus, C-terminus); printed as NH2-Asp-Leu-Trp-Arg-Ile-Arg-Ser-COOH) [7-mer WI] | could sustain 7-mer bioactivity, only partly | 0.91 ± 0.078 | 1.23 ± 0.22 | inhibited | may suppress in vivo metastasis | 74 ± 24.3 | 67.3 | may significantly prevent | 0.31 ± 0.085 | –
NH2-Asp-Leu-Tyr-Arg-Gln-Lys-Ser-COOH (DLYRQKS; not fully specified (N-terminus, C-terminus); printed as NH2-Asp-Leu-Tyr-Arg-Gln-Lys-Ser-COOH) [7-mer QK] | could sustain 7-mer bioactivity, only partly | 1.09 ± 0.067 | 1.46 ± 0.31 | inhibited | may suppress in vivo metastasis | 82 ± 16.3 | 63.5 | may significantly prevent | 0.31 ± 0.081 | –
NH2-Asp-Leu-Tyr-Arg-Leu-Arg-Ser-COOH (DLYRLRS; not fully specified (N-terminus, C-terminus); printed as NH2-Asp-Leu-Tyr-Arg-Leu-Arg-Ser-COOH) [7-mer (V→L)] | could sustain 7-mer bioactivity, only partly | 1.02 ± 0.049 | 1.41 ± 0.37 | inhibited | may suppress in vivo metastasis | 75 ± 30.4 | 66.8 | may significantly prevent | 0.33 ± 0.079 | relatively the same bioactivity
NH2-Asp-Leu-Tyr-Arg-Met-Lys-Ser-COOH (DLYRMKS; not fully specified (N-terminus, C-terminus); printed as NH2-Asp-Leu-Tyr-Arg-Met-Lys-Ser-COOH) [7-mer MK] | could sustain 7-mer bioactivity, only partly | 1.04 ± 0.062 | 1.18 ± 0.31 | inhibited | may suppress in vivo metastasis | 79 ± 26.4 | 65.0 | may significantly prevent | 0.37 ± 0.095 | –
NH2-Asp-Leu-Tyr-Arg-Val-Arg-(D-Ser)-COOH (H-DLYRVR[dS]-OH) [7-mer DS] | – | 1.59 ± 0.084 | 3.45 ± 0.26 | unaffected | – | 245 ± 30.4 | −9.0 | – | 0.96 ± 0.12 | lose its biological activity
NH2-Asp-Leu-Tyr-Lys-Val-Pro-Ser-COOH (DLYKVPS; not fully specified (N-terminus, C-terminus); printed as NH2-Asp-Leu-Tyr-Lys-Val-Pro-Ser-COOH) [7-mer KP] | could sustain 7-mer bioactivity, only partly | 1.02 ± 0.075 | 1.62 ± 0.29 | inhibited | may suppress in vivo metastasis | 69 ± 11.5 | 69.3 | may significantly prevent | 0.37 ± 0.13 | –
